Values belong to the compound of their own block, whether it stands above or below them.
Legend:
HuapoAI transgenic mice = experiment: Evaluation of triglyceride and cholesterol level in HuapoAI transgenic mice; format: in vivo; settings: for change in vivo at 30 mg/kg / inhibition in vivo at 30 mg/kg: Mus musculus, 168 h, 30 mg/kg daily oral gavage 7 days; for change in vivo at 30 mg/kg: percent increase in FPLC HDLc area under the curve; for inhibition in vivo at 30 mg/kg: serum, male human apoAI transgenic mice, read-out: % Triglyceride Reduction
Procedure: Five to six week old male mice, transgenic for human apoAI [C57Bl/6-tgn(apoa1)lrub, Jackson Laboratory, Bar Harbor, Me.] were housed five per cage (10″×20″×8″ with aspen chip bedding) with food (Purina 5001) and water available at all times. After an acclimation period of 2 weeks, animals were individually identified by ear notches, weighed, and assigned to groups based on body weight. Beginning the following morning, mice were dosed daily by oral gavage for 7 days using a 20 gauge, 1½″ curved disposable feeding needle (Popper & Sons). Treatments were test compounds (30 mg/kg), a positive control (fenofibrate, 100 mg/kg) or vehicle [1% carboxymethylcellulose (w/v)/0.25% Tween80 (w/v); 0.2 ml/mouse]. Prior to termination on day 7, mice were weighed and dosed. Three hours after dosing, animals were anesthetized by inhalation of isoflurane (2-4%; Abbott Laboratories, Chicago, Ill.) and blood obtained via cardiac puncture (0.7-1.0 ml). Whole blood was transferred to serum separator tubes (Vacutainer SST), chilled on ice, and permitted to clot. Serum was obtained after centrifugation at 4° C. and frozen until analysis for triglycerides, total cholesterol, compound levels, and serum lipoprotein profile by fast protein liquid chromatography (FPLC) coupled to an inline detection system. After sacrifice by cervical dislocation, the liver, heart and epididymal fat pads were excised and weighed.
The animals dosed with vehicle had average triglycerides values of 60-80 mg/dl, which were reduced by the positive control fenofibrate (33-58 mg/dl with a mean reduction of 37%). The animals dosed with vehicle had average total serum cholesterol values of 140-180 mg/dl, which were increased by fenofibrate (190-280 mg/dl, with a mean elevation of 41%). […] Fenofibrate increased the amount of HDLc (68-96 v-sec with a mean percent increase of 48%).
(§1) Glucose was measured colorimetrically using commercially purchased reagents (Sigma #315-500). According to the manufacturers, the procedures were modified from published work (McGowan, M. W., Artiss, J. D., Strandbergh, D. R. & Zak, B. Clin Chem, 20:470-5 (1974) and Keston, A. Specific colorimetric enzymatic analytical reagents for glucose. Abstract of papers 129th Meeting ACS, 31C (1956).); and depend on the release of a mole of hydrogen peroxide for each mole of analyte, coupled with a color reaction first described by Trinder (Trinder, P. Determination of glucose in blood using glucose oxidase with an alternative oxygen acceptor. Ann Clin Biochem, 6:24 (1969)). The absorbance of the dye produced is linearly related to the analyte in the sample. The assays were further modified in our laboratory for use in a 96 well format. Standards (Sigma #339-11, Sigma #16-11, and Sigma #CC0534 for glucose triglycerides and total cholesterol, respectively), quality control plasma (Sigma # A2034), and samples (2 or 5 μl/well) were measured in duplicate using 200 μl of reagent. An additional aliquot of sample, pipetted to a third well and diluted in 200 μl water, provided a blank for each specimen. Plates were incubated at room temperature (18, 15, and 10 minutes for glucose, triglycerides and total cholesterol, respectively) on a plate shaker (DPC Micormix 5) and absorbance read at 500 nm (glucose and total cholesterol) or 540 nm (triglycerides) on a plate reader (Wallac Victor 1420). Sample absorbances were compared to a standard curve (100-800, 10-500, and 100-400 mg/dl for glucose, triglycerides and total cholesterol, respectively). Values for the quality control sample were always within the expected range and the coefficient of variation for samples was below 10%. All samples from an experiment were assayed at the same time to minimize inter-assay variability.
Serum lipoproteins were separated and cholesterol quantitated with an in-line detection system. Sample was applied to a Superose® 6 HR 10/30 size exclusion column (Amersham Pharmacia Biotech) and eluted with phosphate buffered saline-EDTA at 0.5 ml/min. […]

db/db mice = experiment: Evaluation of glucose levels in db/db mice; format: in vivo; settings: Mus musculus, 168 h; 30 mg/kg daily oral gavage 7 days, male db/db mice; 100% = lean values; read-out: Glucose Normalization %
Procedure: Five week old male diabetic (db/db) mice [C57BlKs/j-m +/+ Lepr(db), Jackson Laboratory, Bar Harbor, Me.] or lean littermates (db+) were housed 6 per cage (10″×20″×8″ with aspen chip bedding) with food (Purina 5015) and water available at all times. After an acclimation period of 2 weeks, animals were individually identified by ear notches, weighed, and bled via the tail vein for determination of initial glucose levels. Blood was collected (100 μl) from unfasted animals by wrapping each mouse in a towel, cutting the tip of the tail with a scalpel, and milking blood from the tail into a heparinized capillary tube (Fisher) balanced on the edge of the bench. Sample was discharged into a heparinized microtainer with gel separator (VWR) and retained on ice. Plasma was obtained after centrifugation at 4° C. and glucose measured immediately. Remaining plasma was frozen until the completion of the experiment, when glucose and triglycerides were assayed in all samples. Animals were grouped based on initial glucose levels and body weights. Beginning the following morning, mice were dosed daily by oral gavage for 7 days using a 20 gauge, 1½″ curved disposable feeding needle. Treatments were test compounds (30 mg/kg), a positive control agent (30 mg/kg) or vehicle [1% carboxymethylcellulose (w/v)/0.25% Tween80 (w/v); 0.3 ml/mouse]. On day 7, mice were weighed and bled (tail vein) 3 hours after dosing. Twenty-four hours after the 7th dose (i.e., day 8), animals were bled again (tail vein). Samples obtained from conscious animals on days 0, 7 and 8 were assayed for glucose. After the 24 hour bleed, animals were weighed and dosed for the final time. Three hours after dosing on day 8, animals were anesthetized by inhalation of isoflurane and blood obtained via cardiac puncture (0.5-0.7 ml). Whole blood was transferred to serum separator tubes, chilled on ice and permitted to clot. Serum was obtained after centrifugation at 4° C. and frozen until analysis for compound levels. After sacrifice by cervical dislocation, the liver, heart and epididymal fat pads were excised and weighed.
The animals dosed with vehicle had average triglycerides values of 170-230 mg/dl, which were reduced by the positive PPARγ control (70-120 mg/dl with a mean reduction of 50%). Male db/db mice were hyperglycemic (average glucose of 680-730 mg/dl on the 7th day of treatment), while lean animals had average glucose levels between 190-230 mg/dl.
as §1, with “Sample absorbances were compared to a standard curve (100-800, 10-500, and 100-400 mg/dl for glucose, triglycerides and total cholesterol, respectively). Values for the quality control sample were always within the expected range and the coefficient of variation for samples was below 10%. All samples from an experiment were assayed at the same time to minimize inter-assay variability.” left out

huPPARγ = molecular target: T1, huPPARγ (Homo sapiens, UniProt P37231); experiment: Cotransfection assay in CV-1 cells, AOX PPRE luciferase reporter; format: cell-based; design: expressed in transfected cells; host or cells: CV-1 cells; settings: cotransfection efficacy relative to PPARγ agonist reference molecule
T1 sequence (P37231 1-505): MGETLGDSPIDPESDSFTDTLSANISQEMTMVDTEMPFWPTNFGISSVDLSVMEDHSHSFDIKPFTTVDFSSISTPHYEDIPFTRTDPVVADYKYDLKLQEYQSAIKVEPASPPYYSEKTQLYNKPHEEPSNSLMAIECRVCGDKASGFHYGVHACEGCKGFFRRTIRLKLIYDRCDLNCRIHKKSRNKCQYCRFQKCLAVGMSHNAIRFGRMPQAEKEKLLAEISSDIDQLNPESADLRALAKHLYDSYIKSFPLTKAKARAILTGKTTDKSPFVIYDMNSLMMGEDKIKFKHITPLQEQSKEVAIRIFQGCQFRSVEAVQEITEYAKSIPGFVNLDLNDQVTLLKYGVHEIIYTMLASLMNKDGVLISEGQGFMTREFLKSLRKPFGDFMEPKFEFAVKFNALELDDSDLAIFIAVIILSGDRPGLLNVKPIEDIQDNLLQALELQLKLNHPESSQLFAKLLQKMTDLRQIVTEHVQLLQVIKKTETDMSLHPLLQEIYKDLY
T1 sequence (P19793 1-462 partner): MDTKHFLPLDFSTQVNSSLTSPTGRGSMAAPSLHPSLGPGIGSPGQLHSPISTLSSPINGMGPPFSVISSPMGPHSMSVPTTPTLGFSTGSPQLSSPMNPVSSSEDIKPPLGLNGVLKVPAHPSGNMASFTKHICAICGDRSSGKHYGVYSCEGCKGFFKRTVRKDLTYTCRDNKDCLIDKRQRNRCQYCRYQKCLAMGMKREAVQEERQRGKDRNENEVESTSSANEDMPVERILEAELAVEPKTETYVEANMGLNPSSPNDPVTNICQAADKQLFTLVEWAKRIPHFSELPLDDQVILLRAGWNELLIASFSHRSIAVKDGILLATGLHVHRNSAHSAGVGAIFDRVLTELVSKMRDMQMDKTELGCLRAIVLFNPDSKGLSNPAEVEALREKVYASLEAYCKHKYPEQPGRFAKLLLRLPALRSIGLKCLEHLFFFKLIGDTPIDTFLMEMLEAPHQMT
Procedure: (§2) DNA-dependent binding (ABCD binding) was carried out using SPA technology with PPAR receptors. Tritium-labeled PPARα and PPARγ agonists were used as radioligands for generating displacement curves and IC50 values with compounds of the invention. Cotransfection assays were carried out in CV-1 cells. The reporter plasmid contained an acylCoA oxidase (AOX) PPRE and TK promoter upstream of the luciferase reporter cDNA. Appropriate PPARs and RXRα were constitutively expressed using plasmids containing the CMV promoter. […] In order to eliminate such interference, a GAL4 chimeric system was used in which the DNA binding domain of the transfected PPAR was replaced by that of GAL4, and the GAL4 response element was utilized in place of the AOX PPRE. Cotransfection efficacy was determined relative to PPARα agonist and PPARγ agonist reference molecules. Efficacies were determined by computer fit to a concentration-response curve, or in some cases at a single high concentration of agonist (10 μM). For binding or cotransfection studies with receptors other than PPARs, similar assays were carried out using appropriate ligands, receptors, reporter constructs, etc., for that particular receptor.
(§3) These studies were carried out to evaluate the ability of compounds of the invention to bind to and/or activate various nuclear transcription factors, particularly huPPARα (“hu” indicates “human”) and huPPARγ. These studies provide in vitro data concerning efficacy and selectivity of compounds of the invention. Furthermore, binding and cotransfection data for compounds of the invention were compared with corresponding data for marketed compounds that act on either huPPARα or huPPARγ.
(§4) Binding and cotransfection data for representative compounds of the invention are compared with corresponding data for reference compounds in Table II.

huPPARα = experiment: Cotransfection assay in CV-1 cells, luciferase reporter (GAL4 chimeric system); format: cell-based, human; settings: cotransfection efficacy relative to PPARα agonist reference molecule
Procedure: as §2, §3, §4

[1] = 100 mg/kg daily oral gavage 7 days, versus vehicle

melting point: 136 to 138 °C
Compound: Cc1oc(-c2ccccc2)nc1COc1ccc(OC(C)(C)C(=O)O)cc1 [Example 4, 2-Methyl-2-[4-(5-methyl-2-phenyloxazol-4-ylmethoxy)phenoxy]propionic acid]

Compound: Cc1oc(-c2ccccc2)nc1CCOc1ccc(OC(C)(Cc2ccccc2)C(=O)O)cc1 (centres unmarked) [Example 6, 2-Methyl-2-{4-[2-(5-methyl-2-phenyloxazol-4-yl)ethoxy]phenoxy}-3-phenylpropionic acid]
change in vivo at 30 mg/kg (HuapoAI transgenic mice): 20% | inhibition in vivo at 30 mg/kg (HuapoAI transgenic mice): 35.4% | inhibition in vivo at 30 mg/kg (db/db mice): 65%

melting point: 131 to 134 °C
Compound: C#Cc1cccc(-c2nc(CCOc3ccc(OC(C)(C)C(=O)O)cc3)c(C)o2)c1 [Example 10, 2-(4-{2-[2-(3-Ethynylphenyl)-5-methyloxazol-4-yl]ethoxy}phenoxy)-2-methylpropionic acid]

Compound: CCc1cc(OC(C)(C)C(=O)O)ccc1OCCc1nc(-c2ccccc2)oc1C [Example 31A, 2-{3-Ethyl-4-[2-(5-methyl-2-phenyloxazol-4-yl)ethoxy]phenoxy}-2-methylpropionic acid]
change in vivo at 30 mg/kg (HuapoAI transgenic mice): 98% | inhibition in vivo at 30 mg/kg (HuapoAI transgenic mice): -6.4% | inhibition in vivo at 30 mg/kg (db/db mice): 19%

huPPARγ CTF Eff. (%) (huPPARγ): 0%
Compound: CC(C)(Oc1ccc(C(=O)c2ccc(Cl)cc2)cc1)C(=O)O [Fenofibric acid, reference compound]
huPPARα CTF Eff. (%) (huPPARα): 16%

Compound: Cc1c(C)c2c(c(C)c1O)CCC(C)(COc1ccc(CC3SC(=O)NC3=O)cc1)O2 (centres unmarked) [Troglitazone, reference compound]
huPPARα CTF Eff. (%) (huPPARα): 0%

Compound: CC(C)OC(=O)C(C)(C)Oc1ccc(C(=O)c2ccc(Cl)cc2)cc1 [fenofibrate, reference compound]
HDLc peak area (HuapoAI transgenic mice; 100 mg/kg daily oral gavage 7 days, FPLC of pooled sera, vehicle 47-62 v-sec): 68-96 v-sec | mean elevation of total serum cholesterol (HuapoAI transgenic mice; [1]): 41% | mean percent increase of HDLc (HuapoAI transgenic mice; [1]): 48% | mean reduction of triglycerides (HuapoAI transgenic mice; [1]): 37% | average triglycerides values (HuapoAI transgenic mice; 100 mg/kg daily oral gavage 7 days, vehicle 60-80 mg/dl): 33 to 58 mg/dL | average total serum cholesterol values (HuapoAI transgenic mice; 100 mg/kg daily oral gavage 7 days, vehicle 140-180 mg/dl): 190 to 280 mg/dL

— patent publication US7351728B2, “Oxazolyl-aryloxyacetic acid derivatives and their use as PPAR agonists” (Eli Lilly and Company, priority 2003, dated 2008)
